Key:
[1] = tested on: PMA-induced ear swelling; assay: Topical, Phorbol Ester Mouse Ear Assay; type: in vivo, CD-1 (Crl.) derived male mice
Protocol: 5-(4-Cyanophenoxy)-1-hydroxy-2,1-dihydrobenzoxaborole and betamethasone were provided by Anacor Pharmaceuticals, Inc. Betamethasone is used to treat the itching, redness, dryness, crusting, scaling, inflammation, and discomfort of various skin conditions.
Test substances were each applied topically to the right ear of the test animal 30 minutes before and 15 minutes after Phorbol 12-Myristate 13-Acetate (PMA) was applied. The dosing volume was 20 μl/ear for solvent vehicle or 20 mg/ear for cream formulations.
Male CD-1 (Crl.) derived mice weighing 24±2 g were provided by BioLasco Taiwan (under Charles River Laboratories Technology Licensee). Space allocation for 10 animals was 29×18×13 cm. Mice were housed in APEC® cages. All animals were maintained in a controlled temperature (22° C.-23° C.) and humidity (70%-80%) environment with 12 hours light dark cycles for at least one week in MDS Pharma Services—Taiwan Laboratory prior to use. Free access to standard lab chow for mice (Lab Diet, Rodent Diet, PMI Nutrition International, USA) and tap water was granted. All aspects of this work including housing, experimentation and disposal of animals were performed in general accordance with the Guide for the Care and Use of Laboratory Animals (National Academy Press, Washington, D.C., 1996).
Groups of 5 CD-1 (Crl.) derived male mice weighing 24±2 g were used. PMA ([…] in 20 μl of Acetone) was applied topically to the anterior and posterior surfaces of the right ear to each animal. Vehicle (Ethanol:Acetone/1:1, 20 μL/ear or cream, 20 mg/ear) and test substances including 5-(4-cyanophenoxy)-1-hydroxy-2,1-dihydrobenzoxaborole and betamethasone were each applied 30 minutes before and 15 minutes after PMA application. […] Ear swelling was then measured by a Dyer model micrometer gauge at 6 hours after PMA application as an index of inflammation. Percent inhibition was calculated according to the formula: ([Ic−It]/Ic)×100%, where Ic and It refer to increase of ear thickness (mm) in control and treated mice, respectively. […]

| SMILES | melting point | further results |
| --- | --- | --- |
| N#Cc1ccc(Oc2ccc3c(c2)COB3O)cc1 [C17, 5-(4-Cyanophenoxy)-1,3-dihydro-1-hydroxy-2,1-benzoxaborole] | – | Percent inhibition of ear swelling induced by topical phorbol ester ([1]; 0.2 mg/ear×2 topical, 30 min before and 15 min after PMA, ear swelling measured 6 hours after PMA): 22%; inhibition of the PMA-induced ear swelling (in words) ([1]; 1 mg/ear×2, versus vehicle or cream placebo control): significant inhibition |
| CSc1ccc(Sc2ccc3c(c2)B(O)OC3)cc1 [C94, 6-(4-(methylthio)phenylthio)benzo[c][1,2]oxaborol-1(3H)-ol] | 117 to 120 °C | – |
| Cc1ccc(Sc2ccc3c(c2)B(O)OC3)cc1 [C95, 6-(p-tolylthio)benzo[c][1,2]oxaborol-1(3H)-ol] | 139 to 144 °C | – |
| N#Cc1cccc(COc2ccc3c(c2)COB3O)c1 [C96, 3-((1-hydroxy-1,3-dihydrobenzo[c][1,2]oxaborol-5-yloxy)methyl)benzonitrile] | 147 to 150 °C | – |
| N#Cc1ccc(Oc2cccc(B(O)O)c2)cc1 [C98, 3-(4-Cyanophenoxy)phenylboronic acid] | 153 to 162 °C | – |
| Cc1cc(Oc2ccc(C#N)cc2)ccc1B(O)O [C99, 4-(4-Cyanophenoxy)-2-Methylphenylboronic acid] | 161 to 165 °C | – |
| C[C@@H]1C[C@H]2[C@@H]3CCC4=CC(=O)C=C[C@]4(C)[C@@]3(F)[C@@H](O)C[C@]2(C)[C@@]1(O)C(=O)CO [dexamethasone, Dexamethasone, reference compound] | – | decrease in the ear swelling relative to the vehicle (Ethanol:Acetone/1:1)-treated group ([1]; 3 mg/ear topical, positive control, 6 hours after PMA): 72% |

Reference: patent publication US9682092B2, “Boron-containing small molecules as anti-inflammatory agents” (ANACOR PHARMACEUTICALS, INC., priority 2006, dated 2017)
